Laboratory results: patent US11484529B2, “Desmethylanethole trithione derivatives for the treatment of diseases linked to mitochondrial reactive oxygen species (ROS) production” (OP2 Drugs, priority 2017, dated 2022)
Where two headings read alike, the source gives them in different places.

Key:
H460 cells = assay: Oxygen consumption of resting carcinoma cells (oxygraphy); type: cell-based, human; conditions: 0 to 40 μM
Protocol: Human non-small cell carcinoma cell line H460 and A549 were obtained from ATCC. Cells were cultured in growth medium consisting of DMEM (GIBCO), 10% FBS (GIBCO) and 100 units of penicillin and 100 μg/mL streptomycin (GIBCO). The cells were maintained in either 75-cm^2 T-flasks or 175-cm^2 T-flasks (BD Biosciences) in an incubator (model 3100 series, Forma Scientific, Marietta, Ohio) controlled at 37° C., 95% humidity, and 5% CO2. Cell culture medium was refreshed every other day. Every 2 to 3 days, H460 and A549 cultures were detached from the flasks using a 0.25% trypsin solution (Gibco) and subcultured. All cultures were maintained at 80-90% confluence at the time of subculture.
The effects of AOX (0 to 40 μM) were assessed on carcinoma cells using the classical oxygraphic approach and compared to the effects of sister molecule AOL.
Oxygen consumption of H460 resting cells has been measured continuously and increasing concentrations of AOL and AOX (0 to 40 μM) have been injected to the preparation (FIG. 24).

site IQ of complex I = site IQ of complex I (Rattus norvegicus, UniProt A6K8N6+P03889+Q641Y2); assay: Mitochondrial ROS/H2O2 production (Amplex Red/HRP), glutamate+malate+succinate with ATR, no inhibitor; type: biochemical
Sequence of site IQ of complex I (A6K8N6 entry or part of it): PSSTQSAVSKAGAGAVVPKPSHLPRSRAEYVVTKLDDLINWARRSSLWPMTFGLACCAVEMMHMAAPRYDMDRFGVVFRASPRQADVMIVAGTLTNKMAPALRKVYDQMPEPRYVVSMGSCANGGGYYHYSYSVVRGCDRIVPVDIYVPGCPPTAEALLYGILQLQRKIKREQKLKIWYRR
Sequence of site IQ of complex I (P03889 whole entry): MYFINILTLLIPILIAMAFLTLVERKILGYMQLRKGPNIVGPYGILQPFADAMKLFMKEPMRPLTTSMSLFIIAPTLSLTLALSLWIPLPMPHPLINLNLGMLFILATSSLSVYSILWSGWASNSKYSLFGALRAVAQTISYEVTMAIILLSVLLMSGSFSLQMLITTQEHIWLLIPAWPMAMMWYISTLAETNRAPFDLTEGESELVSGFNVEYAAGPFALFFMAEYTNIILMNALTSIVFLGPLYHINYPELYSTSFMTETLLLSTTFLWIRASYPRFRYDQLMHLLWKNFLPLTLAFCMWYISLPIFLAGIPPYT
Sequence of site IQ of complex I (Q641Y2 34-463): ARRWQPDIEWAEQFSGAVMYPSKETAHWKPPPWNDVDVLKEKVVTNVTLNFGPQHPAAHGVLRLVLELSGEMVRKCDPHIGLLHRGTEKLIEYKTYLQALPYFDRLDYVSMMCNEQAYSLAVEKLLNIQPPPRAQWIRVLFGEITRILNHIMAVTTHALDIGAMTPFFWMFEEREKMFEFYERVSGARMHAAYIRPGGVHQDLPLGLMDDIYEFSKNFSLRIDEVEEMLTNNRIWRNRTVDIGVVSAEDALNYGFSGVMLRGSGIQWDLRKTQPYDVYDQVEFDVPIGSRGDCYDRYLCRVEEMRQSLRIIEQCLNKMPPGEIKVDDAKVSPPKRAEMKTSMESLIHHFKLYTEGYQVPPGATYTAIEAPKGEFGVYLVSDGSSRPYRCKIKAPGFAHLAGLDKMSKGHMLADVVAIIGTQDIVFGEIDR
Protocol: (§1) Rates of ROS/H2O2 production from heart mitochondria were assessed through the oxidation of the colorless, non-fluorescent indicator Amplex Red in the presence of exogenous horseradish peroxidase (HRP, EC 1.11.1.7, Sigma). H2O2 reacts with Amplex Red in a 1:1 stoichiometry, yielding the fluorescent compound resorufin (excitation: 560 nm; emission: 585 nm) which is stable once formed. Fluorescence was measured continuously with a spectro-fluorometer equipped with temperature control and stirring (SAFAS Xenius, Monaco). Isolated mitochondria (0.1 mg/mL) were incubated in the same experimental buffer than previously, supplemented with 15 μM Amplex Red and 10 μg/mL HRP. Glutamate (5 mM)/malate (2.5 mM) together with succinate (5 mM) were used as complex I and complex II substrates, respectively. Experiments were conducted under non-phosphorylating conditions in the presence of 15 μM atractyloside, i.e., under state IV conditions where […]. Afterwards, rotenone (1.5 μM), antimycin A (2 μM), and myxothiazol (0.2 μM) were sequentially added to inhibit the redox centers within the electron transfer chain (FIG. 2), namely sites IQ, IF (with rotenone), IIIQi (with antimycin A) and IIIQO (with myxothiazol). Assay was finally calibrated with known amounts of H2O2 (steps of 300 nM), in the presence of all relevant compounds, including AOL. The control test of the absence of effect of AOL on the Amplex Red assay itself and NAD(P)H oxidase ROS/H2O2 production was carried out in the absence of cardiac mitochondria and the presence of NAD(P)H oxidase (EC 1.6.3.3, 5 mU/mL, Sigma) and NADH (100 μM) solutions.
Rates of ROS/H2O2 production from heart mitochondria were assessed through the oxidation of the colorless, non-fluorescent indicator Amplex Red in the presence of exogenous horseradish peroxidase (HRP, EC 1.11.1.7, Sigma). H2O2 reacts with Amplex Red in a 1:1 stoichiometry, yielding the fluorescent compound resorufin (excitation: 560 nm; emission: 585 nm) which is stable once formed. Fluorescence was measured continuously with a spectro-fluorometer equipped with temperature control and stirring (SAFAS Xenius, Monaco).
(§2) Isolated mitochondria (0.1 mg/mL) were incubated in the same experimental buffer than previously, supplemented with 15 μM Amplex Red and 10 μg/mL HRP. Glutamate (5 mM)/malate (2.5 mM) together with succinate (5 mM) were used as complex I and complex II substrates, respectively. Experiments were conducted under non-phosphorylating conditions in the presence of 15 μM atractyloside. Afterwards, rotenone (1.5 μM), antimycin A (2 μM), and myxothiazol (0.2 μM) were sequentially added to inhibit the redox centers within the electron transfer chain (see FIG. 2), namely sites IQ, IF (with rotenone), IIIQi (with antimycin A) and IIIQO (with myxothiazol). Assay was finally calibrated with known amounts of H2O2 (steps of 300 nM), in the presence of all relevant compounds, including AOX. The control test of the absence of effect of AOL, AOX and Oltipraz on the Amplex Red assay itself and NAD(P)H oxidase […] production was carried out in the absence of cardiac mitochondria and the presence of NAD(P)H oxidase (EC 1.6.3.3, 5 mU/mL, Sigma) and NADH (100 μM) solutions.

NAD(P)H oxidase = assay: Non-mitochondrial ROS/H2O2 production by NAD(P)H oxidase (Amplex Red); type: biochemical; conditions: no mitochondria; for effect on ROS measurement with NAD(P)H oxidase: 10 to 100 μM; for averaged percentage of ROS production across all concentrations tested: NAD(P)H oxidase, FIG. 22A
Protocol: as §1
The specificity of AOL was further tested in vitro using the peroxidase-Amplex Red system utilized for the measurement of ROS/H2O2 by mitochondria, which in fact measures the appearance of H2O2 by the oxidation of Amplex Red to the fluorescent resorufin (see FIG. 4). In the absence of mitochondria and by adding instead a H2O2-producing system to the measuring system, it was possible to test the effect of AOL on this system. This has been carried out by using commercial NAD(P)H oxidase which produces H2O2 in the presence of added NAD(P)H and measuring the reduction of Amplex Red to resorufin (FIG. 4).
as §2
The mechanism of action of AOX was further tested in vitro using the peroxidase-Amplex Red system utilized for the measurement of ROS/H2O2 by mitochondria, which in fact measures the appearance of H2O2 by the oxidation of Amplex Red to the fluorescent resorufin (FIG. 22). In the absence of mitochondria and by adding instead a H2O2-producing system to the assay, it was possible to test the effect of AOX on this non-mitochondrial superoxide/H2O2 production. This has been carried out by using commercial NAD(P)H oxidase which produces H2O2 in the presence of added NAD(P)H and measuring the reduction of Amplex Red to resorufin. […]

SMILES	rate of oxygen consumption by H460 cells (H460 cells)	decrease of ROS/H2O2 production measured in the absence of inhibitor (site IQ of complex I; AOL 5 to 80 μM, glutamate, malate, succinate, only ATR present)	effect on ROS measurement with NAD(P)H oxidase (NAD(P)H oxidase)	averaged percentage of ROS production across all concentrations tested (NAD(P)H oxidase)	inhibition of fluorescence in NAD(P)H oxidase/Amplex Red system (NAD(P)H oxidase; results not shown)	lowest concentration showing an inhibitory effect on ROS production by site IQ (site IQ of complex I; AOX 2.5 to 20 μM, glutamate, malate, succinate, ATR)	IC50 (site IQ of complex I; AOX 2.5 to 20 μM, glutamate, malate, succinate, ATR, read-out: estimated IC50 on ROS production by site IQ)	Hill coefficient (site IQ of complex I; fit of FIG. 21)	Maximum (fit parameter) (site IQ of complex I; fit of FIG. 21)	Minimum (fit parameter) (site IQ of complex I; fit of FIG. 21)	IC50 (site IQ of complex I; fit of FIG. 21, read-out: IC50 (fit parameter))
COc1ccc(-c2cc(=S)ss2)cc1 [AOL, 5-(4-methoxyphenyl)-3H-1,2-dithiole-3-thione]	no change in the rate of oxygen consumption	approximately 80%	no global effect	99.2%	did not observe any inhibition						
Oc1ccc(-c2cc(=S)ss2)cc1 [AOX, 5-(4-hydroxyphenyl)-3H-1,2-dithiole-3-thione]	no change in the rate of oxygen consumption		no global effect	109.9%		2.5 µM	~9.5 µM	2.616±0.5706	554.045±19.73	−72.5272±68.64	9.47 ± 1.02 µM
